Assay results reported in ChEMBL document CHEMBL3797052 (Eur J Med Chem, 2016).

Key:
Format in all cases: functional
[1] = Antiproliferative activity against human HCT15 cells assessed as cell growth at 10^-5 M after 48 hrs by sulforhodamine B assay; conditions: HCT-15, 48 h, read-out: Activity
[2] = Antiproliferative activity against human OVCAR4 cells assessed as cell growth at 10^-5 M after 48 hrs by sulforhodamine B assay; conditions: OVCAR-4, 48 h, read-out: Activity
A549 = assay: Antiproliferative activity against human A549/ATCC cells assessed as cell growth at 10^-5 M after 48 hrs by sulforhodamine B assay; conditions: A549, 48 h, read-out: Activity
[3] = Antiproliferative activity against human SW620 cells assessed as cell growth at 10^-5 M after 48 hrs by sulforhodamine B assay; conditions: SW-620, 48 h, read-out: Activity
KM12 = assay: Antiproliferative activity against human KM12 cells assessed as cell growth at 10^-5 M after 48 hrs by sulforhodamine B assay; conditions: KM12, 48 h, read-out: Activity
[4] = Antiproliferative activity against human SF268 cells assessed as cell growth at 10^-5 M after 48 hrs by sulforhodamine B assay; conditions: SF-268, 48 h, read-out: Activity
[5] = Antiproliferative activity against human BT549 cells assessed as cell growth at 10^-5 M after 48 hrs by sulforhodamine B assay; conditions: BT-549, 48 h, read-out: Activity
SN12C = assay: Antiproliferative activity against human SN12C cells assessed as cell growth at 10^-5 M after 48 hrs by sulforhodamine B assay; conditions: read-out: Activity
[6] = Antiproliferative activity against human PC3 cells assessed as cell growth at 10^-5 M after 48 hrs by sulforhodamine B assay; conditions: PC-3, 48 h, read-out: Activity
NCI-H226 = assay: Antiproliferative activity against human NCI-H226 cells assessed as cell growth at 10^-5 M after 48 hrs by sulforhodamine B assay; conditions: NCI-H226, 48 h, read-out: Activity
MDA-MB-435 = assay: Antiproliferative activity against human MDA-MB-435 cells assessed as cell growth at 10^-5 M after 48 hrs by sulforhodamine B assay; conditions: MDA-MB-435, 48 h, read-out: Activity
[7] = Antiproliferative activity against human OVCAR3 cells assessed as cell growth at 10^-5 M after 48 hrs by sulforhodamine B assay; conditions: OVCAR-3, 48 h, read-out: Activity
A498 = assay: Antiproliferative activity against human A498 cells assessed as cell growth at 10^-5 M after 48 hrs by sulforhodamine B assay; conditions: A498, 48 h, read-out: Activity
[8] = Antiproliferative activity against human Caki1 cells assessed as cell growth at 10^-5 M after 48 hrs by sulforhodamine B assay; conditions: CAKI-1, 48 h, read-out: Activity
MDA-MB-231 = assay: Antiproliferative activity against human MDA-MB-231 cells assessed as cell growth at 10^-5 M after 48 hrs by sulforhodamine B assay; conditions: MDA-MB-231, 48 h, read-out: Activity
[9] = Antiproliferative activity against human DU145 cells assessed as cell growth at 10^-5 M after 48 hrs by sulforhodamine B assay; conditions: DU-145, 48 h, read-out: Activity
NCI-H322M = assay: Antiproliferative activity against human NCI-H322M cells assessed as cell growth at 10^-5 M after 48 hrs by sulforhodamine B assay; conditions: read-out: Activity
[10] = Antiproliferative activity against human UACC257 cells assessed as cell growth at 10^-5 M after 48 hrs by sulforhodamine B assay; conditions: UACC-257, 48 h, read-out: Activity
[11] = Antiproliferative activity against human HL-60(TB) cells assessed as cell growth at 10^-5 M after 48 hrs by sulforhodamine B assay; conditions: HL-60, 48 h, read-out: Activity
CCRF-CEM = assay: Antiproliferative activity against human CCRF-CEM cells assessed as cell growth at 10^-5 M after 48 hrs by sulforhodamine B assay; conditions: read-out: Activity
[12] = Cytotoxicity against human HCT116 cells assessed as growth inhibition at 100 uM after 2 days by MTT assay; conditions: HCT-116, 48 h, read-out: GI
[13] = Cytotoxicity against human HCT116 cells assessed as growth inhibition at 10 uM after 2 days by MTT assay; conditions: HCT-116, 48 h, read-out: GI
[14] = Antiproliferative activity against human Hs 578T cells assessed as cell growth at 10^-5 M after 48 hrs by sulforhodamine B assay; conditions: read-out: Activity
SK-MEL-2 = assay: Antiproliferative activity against human SK-MEL-2 cells assessed as cell growth at 10^-5 M after 48 hrs by sulforhodamine B assay; conditions: SK-MEL-2, 48 h, read-out: Activity
[15] = Antiproliferative activity against human COLO205 cells assessed as cell growth at 10^-5 M after 48 hrs by sulforhodamine B assay; conditions: COLO 205, 48 h, read-out: Activity
[16] = Antiproliferative activity against human HOP92 cells assessed as cell growth at 10^-5 M after 48 hrs by sulforhodamine B assay; conditions: HOP-92, 48 h, read-out: Activity
[17] = Cytotoxicity against human SKBR3 cells assessed as growth inhibition at 100 uM after 2 days by MTT assay; conditions: SK-BR-3, 48 h, read-out: GI
[18] = Antiproliferative activity against human SKOV3 cells assessed as cell growth at 10^-5 M after 48 hrs by sulforhodamine B assay; conditions: SK-OV-3, 48 h, read-out: Activity
[19] = Antiproliferative activity against human OVCAR8 cells assessed as cell growth at 10^-5 M after 48 hrs by sulforhodamine B assay; conditions: OVCAR-8, 48 h, read-out: Activity
[20] = Antiproliferative activity against human OVCAR5 cells assessed as cell growth at 10^-5 M after 48 hrs by sulforhodamine B assay; conditions: OVCAR-5, 48 h, read-out: Activity
786-0 = assay: Antiproliferative activity against human 786-0 cells assessed as cell growth at 10^-5 M after 48 hrs by sulforhodamine B assay; conditions: 786-0, 48 h, read-out: Activity
[21] = Cytotoxicity against human SKBR3 cells assessed as growth inhibition at 10 uM after 2 days by MTT assay; conditions: SK-BR-3, 48 h, read-out: GI
[22] = Antiproliferative activity against human SNB19 cells assessed as cell growth at 10^-5 M after 48 hrs by sulforhodamine B assay; conditions: SNB-19, 48 h, read-out: Activity
NCI-H23 = assay: Antiproliferative activity against human NCI-H23 cells assessed as cell growth at 10^-5 M after 48 hrs by sulforhodamine B assay; conditions: NCI-H23, 48 h, read-out: Activity
MDA-MB-468 = assay: Antiproliferative activity against human MDA-MB-468 cells assessed as cell growth at 10^-5 M after 48 hrs by sulforhodamine B assay; conditions: MDA-MB-468, 48 h, read-out: Activity
[23] = Antiproliferative activity against human HCC2998 cells assessed as cell growth at 10^-5 M after 48 hrs by sulforhodamine B assay; conditions: HCC 2998, 48 h, read-out: Activity
[24] = Antiproliferative activity against human IGROV1 cells assessed as cell growth at 10^-5 M after 48 hrs by sulforhodamine B assay; conditions: IGROV-1, 48 h, read-out: Activity

## CNC(=O)c1cc(Oc2ccc3nc(NC(=O)c4cccc(F)n4)sc3c2)ccn1
[1]
  growth at 10 µM: 92.2%
[2]
  growth at 10 µM: 76%
A549
  growth at 10 µM: 75.2%
[3]
  growth at 10 µM: 105%
KM12
  growth at 10 µM: 87.5%
[4]
  growth at 10 µM: 89.6%
[5]
  growth at 10 µM: 74.6%
SN12C
  growth at 10 µM: 84.9%
[6]
  growth at 10 µM: 73%
NCI-H226
  growth at 10 µM: 76.3%
MDA-MB-435
  growth at 10 µM: 100%
[7]
  growth at 10 µM: 95.5%
A498
  growth at 10 µM: 72.6%
[8]
  growth at 10 µM: 83%
MDA-MB-231
  growth at 10 µM: 86%
[9]
  growth at 10 µM: 99.2%
NCI-H322M
  growth at 10 µM: 92.8%
[10]
  growth at 10 µM: 80.3%
[11]
  growth at 10 µM: 78.2%
CCRF-CEM
  growth at 10 µM: 64.7%
[12]
  inhibition of growth at 100 µM: 55.5%
[13]
  inhibition of growth at 10 µM: 10.8%
[14]
  growth at 10 µM: 92.7%
SK-MEL-2
  growth at 10 µM: 110%
[15]
  growth at 10 µM: 105%
[16]
  growth at 10 µM: 81.4%
[17]
  inhibition of growth at 100 µM: 89.4%
[18]
  growth at 10 µM: 116%
[19]
  growth at 10 µM: 85%
[20]
  growth at 10 µM: 128%
786-0
  growth at 10 µM: 86%
[21]
  inhibition of growth at 10 µM: 12.5%
[22]
  growth at 10 µM: 88.6%
NCI-H23
  growth at 10 µM: 83%
MDA-MB-468
  growth at 10 µM: 71.3%
[23]
  growth at 10 µM: 114%
[24]
  growth at 10 µM: 101%
